Values after ≈ are worked out from the molar mass of the structure shown.
Tests used:
[1] = system: MDA-MB-231 triple negative breast cancer cells; test: Antiproliferative SRB assay, MDA-MB-231; format: cell-based; details: SRB assay
Experimental: FIG. 1. […] Cell death measured by SRB assay after 72 hour of compound exposure (n≥3 biological replicates, error bars show SEM). IC50 values given as mean±SEM from ≥3 biological replicates.
To investigate the feasibility of developing a class of antitumor antibiotics based upon the DNM scaffold, the ability of the DNM to exert an antiproliferative effect against MDA-MB-231 breast cancer cells was evaluated.

BT-474 = test: Antiproliferative SRB assay, BT-474; format: cell-based; details: FIG. 4b, 72 hour
Description: Topoisomerase inhibitors such as DOX are used as single agent and in combination therapy to treat a wide-range of cancer types.

Top1 [2] = target: T1, Top1 (Homo sapiens, UniProt P11387); test: Top1 degradation by Western blot, BT-474; format: cell-based; details: 50 μM for 2, 4, and 6 hours, then 30-minute drug-free media
T1 sequence (P11387 1-765): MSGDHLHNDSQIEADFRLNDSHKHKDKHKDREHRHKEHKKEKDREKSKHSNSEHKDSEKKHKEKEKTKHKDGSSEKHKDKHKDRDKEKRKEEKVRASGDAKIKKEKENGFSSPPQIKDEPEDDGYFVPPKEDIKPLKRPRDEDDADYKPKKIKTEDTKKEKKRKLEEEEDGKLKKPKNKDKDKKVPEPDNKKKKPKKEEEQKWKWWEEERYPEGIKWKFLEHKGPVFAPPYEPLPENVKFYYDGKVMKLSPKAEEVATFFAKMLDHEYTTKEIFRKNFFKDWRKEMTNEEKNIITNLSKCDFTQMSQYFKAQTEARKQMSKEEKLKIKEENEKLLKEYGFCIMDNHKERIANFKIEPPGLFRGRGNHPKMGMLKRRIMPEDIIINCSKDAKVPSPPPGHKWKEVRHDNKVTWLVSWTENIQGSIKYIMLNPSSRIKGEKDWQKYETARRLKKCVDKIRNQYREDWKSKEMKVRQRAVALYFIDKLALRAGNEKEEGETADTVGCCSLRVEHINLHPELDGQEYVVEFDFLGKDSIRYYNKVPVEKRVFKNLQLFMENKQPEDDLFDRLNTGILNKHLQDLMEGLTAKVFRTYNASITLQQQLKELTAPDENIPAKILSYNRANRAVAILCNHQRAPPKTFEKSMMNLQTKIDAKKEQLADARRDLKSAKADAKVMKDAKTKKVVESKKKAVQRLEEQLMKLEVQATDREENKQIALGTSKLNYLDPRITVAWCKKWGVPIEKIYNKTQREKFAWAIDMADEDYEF
Experimental: (§1) FIG. 4. Level of Top1-degradation predicts cell line sensitivity. (a) Cells treated with 25 μM of compound for indicated times followed by a 30 minute incubation with drug-free media. Cells were lysed with RIPA and Top1 levels assessed by Western Blot. (b) Degradation of Top1 results in a right-ward shift in the dose-response curve. Effect is most pronounced in Top1-poisons (Ph-6DNM-NH3, CPT) than Top1 catalytic inhibitor (6DNM-Pyr). Cell death measured by SRB assay after 72 hour of compound exposure (n≥3 biological replicates, error bars show SEM).
(§2) This difference in mechanism of action between Ph-6DNM-NH3 and 6DNM-Pyr may provide an explanation of the differences in cell line sensitivities between the different DNM derivatives. […] This downregulation serves as a resistance mechanism and the level of Top1 degradation is correlated with reduced sensitivity to CPT. To determine if a similar mechanism is responsible for the reduced sensitivity to Ph-6DNM-NH3 and its derivatives in certain cell lines, the effects of Ph-6DNM-NH3 and 6DNM-Pyr were compared to that of CPT in […] and BT-474, two cancer cell lines known to be deficient and proficient in Top1 degradation, respectively. Cells were treated with 50 μM Ph-6DNM-NH3, 6DNM-Pyr, or CPT for 2, 4, and 6 hours. Following a 30-minute incubation with drug-free media to allow for the reversal of any Top1cc formed, cells were lysed and Top1 concentrations assessed by Western blot (FIG. 4a).

Top1 [3] = target: T1, Top1; test: Top1 degradation by Western blot, MDA-MB-231; format: cell-based; design: dose or concentration left out as unconfirmed; details: 4, and 6 hours, then 30-minute drug-free media
Experimental: as §1, §2

E. coli = test: Antibacterial MIC, microbroth dilution, E. coli; format: cell-based
Experimental: (§3) To investigate this possibility, the antibacterial effects of the DNM derivatives was assessed against strains of E. coli, S. aureus, and MRSA using the microbroth dilution method (Table 2).

E. coli TopoIV = E. coli TopoIV (Escherichia coli, UniProt P0AFI2+P20083); test: E. coli TopoIV decatenation assay; format: biochemical
Chain of E. coli TopoIV (P0AFI2 whole entry): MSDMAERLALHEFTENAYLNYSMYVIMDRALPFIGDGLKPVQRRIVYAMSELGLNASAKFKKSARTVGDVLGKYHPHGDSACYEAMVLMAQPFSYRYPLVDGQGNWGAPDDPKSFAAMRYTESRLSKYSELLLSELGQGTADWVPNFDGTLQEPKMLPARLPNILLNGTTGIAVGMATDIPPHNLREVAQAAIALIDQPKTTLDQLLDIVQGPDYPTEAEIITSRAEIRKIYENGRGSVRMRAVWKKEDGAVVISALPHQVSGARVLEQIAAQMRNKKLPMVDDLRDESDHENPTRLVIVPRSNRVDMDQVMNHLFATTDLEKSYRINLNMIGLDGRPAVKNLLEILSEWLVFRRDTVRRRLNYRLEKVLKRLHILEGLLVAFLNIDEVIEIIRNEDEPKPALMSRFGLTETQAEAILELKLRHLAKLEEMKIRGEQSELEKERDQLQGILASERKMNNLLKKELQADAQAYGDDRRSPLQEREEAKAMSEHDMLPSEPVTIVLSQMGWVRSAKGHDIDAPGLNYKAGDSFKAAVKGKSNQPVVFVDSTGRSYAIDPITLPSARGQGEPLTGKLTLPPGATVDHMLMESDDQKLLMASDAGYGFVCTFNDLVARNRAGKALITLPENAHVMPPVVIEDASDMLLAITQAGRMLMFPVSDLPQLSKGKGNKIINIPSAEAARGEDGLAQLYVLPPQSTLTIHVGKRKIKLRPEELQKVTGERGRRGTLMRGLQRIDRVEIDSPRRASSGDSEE
Chain of E. coli TopoIV (P20083 whole entry): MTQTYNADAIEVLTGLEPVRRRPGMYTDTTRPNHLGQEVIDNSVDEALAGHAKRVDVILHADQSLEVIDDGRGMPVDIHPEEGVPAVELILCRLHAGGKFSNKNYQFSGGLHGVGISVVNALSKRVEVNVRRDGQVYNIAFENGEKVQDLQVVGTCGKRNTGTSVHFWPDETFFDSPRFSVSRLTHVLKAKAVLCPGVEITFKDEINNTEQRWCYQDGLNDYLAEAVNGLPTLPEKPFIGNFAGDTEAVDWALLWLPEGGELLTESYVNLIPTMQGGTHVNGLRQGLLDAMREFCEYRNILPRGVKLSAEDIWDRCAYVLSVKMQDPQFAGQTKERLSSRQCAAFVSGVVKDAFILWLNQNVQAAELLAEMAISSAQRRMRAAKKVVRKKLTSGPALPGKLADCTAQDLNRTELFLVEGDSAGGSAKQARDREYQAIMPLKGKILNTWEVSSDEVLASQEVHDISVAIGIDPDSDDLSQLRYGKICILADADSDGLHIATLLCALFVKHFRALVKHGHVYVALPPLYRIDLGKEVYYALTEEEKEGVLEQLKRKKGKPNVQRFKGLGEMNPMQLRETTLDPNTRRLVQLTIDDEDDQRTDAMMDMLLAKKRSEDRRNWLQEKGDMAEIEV
Description: (§4) FIG. 8. In vitro inhibitory activity of 6DNM-NH3, Ph-6DNM-NH3 against E. coli DNA gyrase and TopoIV.
(§5) DNM and its derivatives exert their antibacterial effects through inhibition of the DNA Gyrase.

MRSA = test: Antibacterial MIC, microbroth dilution, MRSA; format: cell-based, S. aureus; details: Staphylococcus aureus, MRSA; microbroth dilution
Experimental: as §3

Top2α = Top2α (Homo sapiens, UniProt P11388); test: Top2α kDNA decatenation assay; format: biochemical; details: gel electrophoresis, FIG. 3a
Chain of Top2α (P11388 whole entry): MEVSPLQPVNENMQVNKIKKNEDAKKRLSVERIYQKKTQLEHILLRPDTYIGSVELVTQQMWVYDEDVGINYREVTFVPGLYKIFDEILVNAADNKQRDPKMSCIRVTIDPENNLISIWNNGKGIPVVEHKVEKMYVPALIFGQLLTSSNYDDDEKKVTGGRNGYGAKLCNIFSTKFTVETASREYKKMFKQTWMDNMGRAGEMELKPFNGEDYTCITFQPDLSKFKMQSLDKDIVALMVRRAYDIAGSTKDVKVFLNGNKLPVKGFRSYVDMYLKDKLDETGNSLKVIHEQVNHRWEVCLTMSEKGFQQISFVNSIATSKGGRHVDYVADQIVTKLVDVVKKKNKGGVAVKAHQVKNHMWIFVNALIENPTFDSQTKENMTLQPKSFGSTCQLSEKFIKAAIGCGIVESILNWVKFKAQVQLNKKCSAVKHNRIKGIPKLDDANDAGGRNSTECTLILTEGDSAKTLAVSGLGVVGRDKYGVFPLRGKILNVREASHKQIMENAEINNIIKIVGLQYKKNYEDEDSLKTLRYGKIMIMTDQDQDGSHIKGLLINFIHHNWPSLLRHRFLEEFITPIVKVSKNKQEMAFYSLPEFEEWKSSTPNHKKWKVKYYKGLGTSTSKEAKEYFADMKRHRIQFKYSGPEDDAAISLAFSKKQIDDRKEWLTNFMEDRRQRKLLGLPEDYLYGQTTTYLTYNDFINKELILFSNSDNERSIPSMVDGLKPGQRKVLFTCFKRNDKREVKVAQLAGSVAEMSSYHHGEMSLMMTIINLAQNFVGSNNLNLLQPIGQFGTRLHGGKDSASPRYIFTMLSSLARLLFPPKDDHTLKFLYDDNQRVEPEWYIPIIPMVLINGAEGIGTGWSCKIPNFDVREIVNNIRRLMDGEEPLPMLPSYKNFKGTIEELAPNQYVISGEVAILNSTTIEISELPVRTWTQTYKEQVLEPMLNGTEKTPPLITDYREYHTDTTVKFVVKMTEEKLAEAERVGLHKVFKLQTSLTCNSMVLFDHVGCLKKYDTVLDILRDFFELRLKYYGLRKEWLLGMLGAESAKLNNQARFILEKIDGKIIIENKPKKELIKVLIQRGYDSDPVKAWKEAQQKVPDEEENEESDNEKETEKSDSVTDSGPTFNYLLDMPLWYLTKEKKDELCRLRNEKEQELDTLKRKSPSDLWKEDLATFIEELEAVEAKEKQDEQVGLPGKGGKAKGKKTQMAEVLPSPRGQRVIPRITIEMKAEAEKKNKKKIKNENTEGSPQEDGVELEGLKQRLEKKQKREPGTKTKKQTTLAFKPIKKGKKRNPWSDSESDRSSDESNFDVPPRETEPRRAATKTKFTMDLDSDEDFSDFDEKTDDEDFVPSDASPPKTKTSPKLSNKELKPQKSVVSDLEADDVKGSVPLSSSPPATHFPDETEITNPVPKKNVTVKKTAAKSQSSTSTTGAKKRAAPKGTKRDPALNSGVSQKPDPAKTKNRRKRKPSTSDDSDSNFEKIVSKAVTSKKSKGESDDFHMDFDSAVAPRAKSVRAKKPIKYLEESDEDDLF
Description: (§6) FIG. 3. DNM derivatives are dual Top1/Top2 inhibitors with different modes of inhibition. (a) Inhibition of decatenating ability of Top2α with increasing concentrations of ETP, 6DNM-NH3, 6DNM-Pyr, and Ph-6DNM-NH3. K, kinetoplast DNA; OC, open circular; R, relaxed. (b) Inhibition of relaxing ability of Top1 with increasing concentrations of CPT, 6DNM-NH3, 6DNM-Pyr, and Ph-6DNM-NH3. R, relaxed; S, supercoiled. (c) Detection of Top2a-DNA using the ICE Assay. Genomic DNA ([…]) of H460 cells treated with drugs (50 μM, 30 min) was applied to nitrocellulose membrane and immunoblotted for Top2a. (d) Detection of Top1-DNA adducts using ICE Assay. Same procedure as (c) using 1 μg of DNA. (e) Inhibition of ETP-induced poisoning of Top2a. H460 cells treated with indicated concentrations of inhibitor for 30 min prior to treatment with ETP (50 μM). Detection of Top2α as in (c).
FIG. 9. Mechanism of action studies: Topoisomerases form transient covalent complexes with DNA to modify DNA topology. Ph6DNM-NH3 and 6DNM-NH3 inhibit bacterial DNA gyrase and human topoisomerase II in vitro.
The ability of Ph-6DNM-NH3, 6DNM-NH3, and 6DNM-Pyr to inhibit Top2α was assessed using a decatenation assay. In this assay, Top2α is incubated with kinetoplast DNA (kDNA), a large network of catenated minicircles and maxicircles of DNA. As Top2α decatenates the kDNA, it releases supercoiled and relaxed DNA minicircles that are easily separated from the kDNA by gel electrophoresis.

Top2cc = target: T2, Top2cc (Homo sapiens, UniProt P11388); test: ICE assay for Top2α-DNA complexes in H460 cells; format: cell-based
T2 construct: endogenous in cells; host or cells: H460
T2 sequence (P11388 whole entry): as above
Description: as §6
(§7) The in vivo complex of enzyme (ICE) assay can be used to distinguish poisons from catalytic inhibitors. The ICE assay consists of isolating the genomic DNA of cells treated with small molecules in a manner the preserves covalent DNA-protein complexes and applying it to nitrocellulose membranes. Because topoisomerase poisons stabilize the cleavage complexes, DNA-protein complexes can be detected by immunoblotting for specific topoisomerases, whereas catalytic inhibitors produce no such result. To determine if DNM derivatives are acting as poisons or catalytic inhibitors, H460 human lung cells were exposed to 50 μM of the Top2 poison ETP, Ph-6DNM-NH3, 6DNM-NH3, and 6DNM-Pyr and assessed for their ability to stabilize Top2cc. […] In a similar fashion, next investigated was the mode of Top1 inhibition using the ICE assay (FIG. 3b).

S. aureus = test: Antibacterial MIC, microbroth dilution, S. aureus; format: cell-based
Experimental: as §3

Top1 [4] = target: T1, Top1; test: Top1 DNA relaxation assay (pBR322); format: biochemical; details: supercoiled pBR322, FIG. 3b
Description: as §6
To further investigate any mechanistic differences between these structurally related DNM analogues they were also evaluated against the other clinically-targeted mammalian topoisomerase, Top1, using a DNA relaxation assay in which purified Top1 relaxes supercoiled pBR322 and the two forms are separated by agarose gel electrophoresis.

Top1cc = target: T3, Top1cc (Homo sapiens, UniProt P11387); test: ICE assay for Top1-DNA adducts in H460 cells; format: cell-based
T3 construct: endogenous in cells; host or cells: H460
T3 sequence (P11387 2-765 limits assumed): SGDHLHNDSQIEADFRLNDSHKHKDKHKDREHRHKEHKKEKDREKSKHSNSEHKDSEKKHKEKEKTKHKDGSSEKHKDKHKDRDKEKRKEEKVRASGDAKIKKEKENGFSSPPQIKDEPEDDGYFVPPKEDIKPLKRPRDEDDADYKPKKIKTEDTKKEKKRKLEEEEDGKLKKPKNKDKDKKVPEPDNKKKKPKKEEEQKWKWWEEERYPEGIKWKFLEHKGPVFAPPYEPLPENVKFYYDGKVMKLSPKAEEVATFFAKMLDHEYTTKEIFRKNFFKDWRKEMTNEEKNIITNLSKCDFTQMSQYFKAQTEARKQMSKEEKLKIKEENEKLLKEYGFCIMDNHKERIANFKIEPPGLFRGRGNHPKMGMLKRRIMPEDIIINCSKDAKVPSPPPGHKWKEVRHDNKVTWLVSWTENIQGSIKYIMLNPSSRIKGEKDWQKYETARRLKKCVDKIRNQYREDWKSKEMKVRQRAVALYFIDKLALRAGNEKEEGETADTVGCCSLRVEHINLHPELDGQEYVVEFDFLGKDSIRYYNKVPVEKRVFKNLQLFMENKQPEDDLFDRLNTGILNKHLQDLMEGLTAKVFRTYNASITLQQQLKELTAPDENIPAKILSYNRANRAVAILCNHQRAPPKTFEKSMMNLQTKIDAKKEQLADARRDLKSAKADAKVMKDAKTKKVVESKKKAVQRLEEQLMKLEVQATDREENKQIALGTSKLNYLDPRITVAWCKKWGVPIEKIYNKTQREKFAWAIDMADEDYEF
Description: as §6, §7

E. coli DNA Gyrase = E. coli DNA Gyrase (Escherichia coli, UniProt P0AES4+P0AES6); test: E. coli DNA Gyrase supercoiling assay; format: biochemical
Chain of E. coli DNA Gyrase (P0AES4 whole entry, one chain of several): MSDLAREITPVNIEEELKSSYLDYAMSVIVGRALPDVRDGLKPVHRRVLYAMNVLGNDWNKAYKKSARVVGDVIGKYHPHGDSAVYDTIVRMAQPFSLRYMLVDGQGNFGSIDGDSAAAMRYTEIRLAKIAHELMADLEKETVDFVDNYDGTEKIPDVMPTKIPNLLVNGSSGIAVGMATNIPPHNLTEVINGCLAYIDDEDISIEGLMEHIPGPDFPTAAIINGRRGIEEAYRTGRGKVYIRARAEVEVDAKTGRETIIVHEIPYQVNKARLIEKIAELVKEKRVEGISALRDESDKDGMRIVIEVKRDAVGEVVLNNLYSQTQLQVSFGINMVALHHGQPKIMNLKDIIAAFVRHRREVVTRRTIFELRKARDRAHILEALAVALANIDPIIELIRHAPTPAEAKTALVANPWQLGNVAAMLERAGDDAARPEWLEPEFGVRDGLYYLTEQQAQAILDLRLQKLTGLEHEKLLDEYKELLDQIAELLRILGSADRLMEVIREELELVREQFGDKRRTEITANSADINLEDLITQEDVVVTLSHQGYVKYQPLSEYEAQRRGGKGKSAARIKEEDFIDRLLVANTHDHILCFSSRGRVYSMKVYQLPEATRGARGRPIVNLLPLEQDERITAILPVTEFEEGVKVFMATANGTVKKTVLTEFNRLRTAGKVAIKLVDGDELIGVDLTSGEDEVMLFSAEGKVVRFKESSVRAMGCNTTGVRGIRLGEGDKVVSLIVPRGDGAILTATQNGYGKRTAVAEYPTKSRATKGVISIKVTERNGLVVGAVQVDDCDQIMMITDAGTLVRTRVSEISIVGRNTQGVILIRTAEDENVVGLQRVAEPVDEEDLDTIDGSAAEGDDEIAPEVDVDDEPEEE
Description: as §4, §5

Row | Compound | Antiproliferative effect against MDA-MB-231 cells ([1]; FIG. 1, 72 hour) | Effectiveness in BT-474 after Top1 degradation (BT-474) | Top1 levels by Western blot in BT-474 (Top1 [2]) | Top1 levels by Western blot in MDA-MB-231 (Top1 [3]) | E. coli MIC (E. coli) | Inhibition of purified E. coli TopoIV (E. coli TopoIV) | MIC (MRSA) | IC50 ([1]; 72 hour compound exposure, mean ± SEM, read-out: MDA-MB-231 IC50) | Inhibition of decatenating function of Top2α (Top2α) | Accumulation of Top2cc (ICE assay) (Top2cc; 50 μM) | Effect on ETP-induced Top2cc (Top2cc; pre-treatment 30 minutes prior to ETP (50 μM)) | S. aureus MIC (S. aureus) | Inhibition of Top1 relaxation (Top1 [4]) | Accumulation of Top1cc (ICE assay) (Top1cc; H460 cells, 50 μM, 30 min) | Mode of topoisomerase inhibition (Top1cc; in vitro and cell culture experiments taken together) | Inhibition of purified E. coli DNA Gyrase (E. coli DNA Gyrase)
1 | CC[C@@]1(O)C(=O)OCc2c1cc1n(c2=O)Cc2cc3ccccc3nc2-1 [CPT, camptothecin, reference compound] | sensitive | nearly complete resistance | time-dependent decrease in the levels of Top1 | minimal differences in Top1 relative to untreated cells |  |  |  |  |  |  |  |  |  |  |  | 
2 | Cc1cc(=O)n(C)c2c3c4c(cc12)c(C)cc(=O)n4C(CN)CO3 (stereo not shown) [Compound 9] |  |  |  |  | 0.5 µg/mL | able to inhibit | 0.03 µg/mL (≈ 0.0922 µM) | 220 ± 20 nM | inhibit the decatenating function of Top2α in a dose-dependent manner | only ETP treatment resulted in the accumulation of Top2cc | dose-dependent decrease in ETP-induced Top2cc | 0.5 µg/mL | inhibit relaxation at submicromolar concentrations | neither 6DNM-NH3 nor 6DNM-Pyr, leads to the accumulation of Top1cc | dual Top1/Top2α catalytic inhibitors | able to inhibit
